From patent US8658801B2, “Pesticides containing a bicyclic bisamide structure” (Syngenta Crop Protection, LLC, priority 2006, dated 2014)

Key:
[1] = tested on: Plutella xylostella (Diamond Back Moth); assay: Example B3: Plutella xylostella, larvicide, feeding/residual contact, preventive (artificial diet MTP); type: in vivo; settings: 120 h, 5 days incubation, L2 larvae
Description: Plutella xylostella (Diamond Back Moth)
(§1) (Larvicide, Feeding/Residual Contact Activity, Preventive)
24-well microtiter plate (MTP) with artificial diet is treated with test solutions by pipetting. After drying, the MTP's are infested with larvae (L2)(10-15 per well). After an incubation period of 5 days, samples are checked for larval mortality, antifeedant and growth regulation. In this test, compounds listed in Table P above show good activity. In particular compounds P.1, P.2, P.3, P.4, P.5, P.6, P.7, P.9, P.10, P.11, P.12, P.13, P.15, P.16, P.17, P.18, P.19, P.20, P.21, P.22, P.23, P.25, P.26, P.27, P.28, P.29, P.30, P.31, P.32, P.33, P.34, P.35, P.36, P.37, P.38, P.39, P.40, P.41, P.42, P.43, P.44, P.46, P.47, P.48, P.49, P.50, P.51, P.52, P.53, P.54, P.55, P.56, P.57, P.58, P.59, P.60, P.61, P.63, P.64, P.67, P.68, P.69 P.70, P.72, P.74, P.77, P78 and P.79 show an activity of over 80% at a concentration of 400 ppm.

[2] = tested on: Myzus persicae (Green Peach Aphid); assay: Example B5: activity against Myzus persicae, mixed population, feeding/residual contact, preventive (sunflower leaf discs); settings: foliar, 144 h, read-out: activity
[3] = tested on: Myzus persicae (Green Peach Aphid); assay: Example B6: activity against Myzus persicae, mixed population, systemic/feeding, curative (pea seedling roots); settings: 144 h, read-out: activity
[4] = tested on: Spodoptera littoralis (Egyptian Cotton Leafworm); assay: Example B1: activity against Spodoptera littoralis, larvicide, feeding/residual contact, preventive (cotton leaf discs); type: in vivo; settings: foliar, 72 h, 3 days after treatment, L1 larvae
Text: Activity Against Spodoptera littoralis (Egyptian Cotton Leafworm)
as §1
The samples are checked for mortality, repellent effect, feeding behaviour, and growth regulation 3 days after treatment. In this test, compounds listed in Table P above show good activity. In particular compounds P.1, P.2, P.3, P.4, P.5, P.6, P.7, P.9, P.10, P.11, P.12, P.13, P.15, P.16, P.17, P.18, P.19, P.20, P.21, P.22, P.23, P.24, P.25, P.26, P.27, P.28, P.29, P.30, P.31, P.32, P.33, P.34, P.35, P.36, P.37, P.38, P.39, P.40, P.41, P.42, P.43, P.44, P.45, P.46, P.47, P.48, P.49, P.50, P.51, P.52, P.53, P.54, P.55, P.56, P.57, P.58, P.59, P.60, P.61, P.63, P.64, P.67, P.68 and P.70 show an activity of over 80% at a concentration of 400 ppm.

[5] = tested on: Heliothis virescens (Tobacco Budworm); assay: Example B2: activity against Heliothis virescens, ovo-larvicide, feeding/contact, curative; type: in vivo; settings: 96 h, 4 days incubation, eggs 0-24 h old
Description: Activity Against Heliothis virescens (Tobacco Budworm)
(Ovo-Larvicide, Feeding/Contact Activity, Curative)
Eggs (0-24 h old) are placed in 24-well microtiter plate on artificial diet and treated with test solutions by pipetting. After an incubation period of 4 days, samples are checked for egg mortality, larval mortality, and growth regulation.

[6] = tested on: Thrips tabaci (Onion Thrips); assay: Example B7: activity against Thrips tabaci, mixed population, feeding/residual contact, preventive; settings: 144 h, read-out: activity
[7] = tested on: Diabrotica balteata (Corn Root Worm); assay: Example B4: Diabrotica balteata, larvicide, feeding/residual contact, preventive; type: in vivo; settings: 120 h, 5 days incubation, L2 larvae
Description: Diabrotica balteata (Corn Root Worm)
as §1
After drying, the MTP's are infested with larvae (L2)(6-10 per well). After an incubation period of 5 days, samples are checked for larval mortality, antifeedant and growth regulation. In this test, compounds listed in Table P above show good activity. In particular compounds P.1, P.2, P.5, P.6, P.10, P.11, P.12, P.13, P.15, P.16, P.17, P.18, P.19, P.24, P.25, P.27, P.28, P.29, P.30, P.31, P.33, P.34, P.35, P.37, P.38, P.39, P.42, P.43, P.44, P.45, P.46, P.47, P.48, P.49, P.50, P.52, P.53, P.65, P.67, P.68, P.69, P.70, P.71, P.72, P.75, P.78, and P.79 show an activity of over 80% at a concentration of 400 ppm.

[8] = tested on: Frankliniella occidentalis (Western Flower Thrips); assay: Example B9: activity against Frankliniella occidentalis (bean leaf discs or bean plants); type: in vivo; settings: foliar, 6 days (leaf discs) or 14 days (plants) after infestation
Description: Activity Against Frankliniella occidentalis (Western Flower Thrips)
Bean leaf discs on agar in petri dishes or bean plants in a spray chamber are treated with diluted test solutions. After drying leaf discs are cut and placed in plastic cups on the surface of an agar layer and infested with mixed population. 6 days (leaf discs) or 14 days (plants) after the infestation, samples are checked for reduction of treated population and compared to the non treated population.

[9] = tested on: Aphis craccivora (Pea Aphid); assay: Example B11: activity against Aphis craccivora, mixed population, systemic/feeding; type: in vivo; settings: 144 h, 6 days, roots in test solution (systemic)
Text: Activity Against Aphis craccivora (Pea Aphid)
(Mixed Population, Systemic/Feeding)
6 days later, samples are checked for mortality.

Measured: pest or weed control at 400 ppm

CCNC(=O)c1c(NC(=O)c2cc(OC)nn2-c2ncccc2Cl)c(Br)cc2cn[nH]c12 [P.50]
not listed: [8] | [9]
> 80%: all other assays above

Cc1cc2cn[nH]c2c(C(=O)NC(C)C)c1NC(=O)c1cc(OCC(F)(F)F)nn1-c1ncccc1Cl [P.52, 6-{[2-(3-chloro-pyridin-2-yl)-5-(2,2,2-trifluoro-ethoxy)-2H-pyrazole-3-carbonyl]-amino}-5-methyl-1H-indazole-7-carboxylic acid isopropylamide]
> 80%: all assays above

O=C(NC1(C2CC2)CC1)c1c(NC(=O)c2cc(OCC(F)(F)F)nn2-c2ncccc2Cl)c(Cl)cc2cn[nH]c12 [P.48]
not listed: [9]
> 80%: all other assays above

COc1cc(C(=O)Nc2c(Cl)cc3cn[nH]c3c2C(=O)NC2(C)CSC2)n(-c2ncccc2Cl)n1 [P.59, 5-chloro-6-{[2-(3-chloro-pyridin-2-yl)-5-methoxy-2H-pyrazole-3-carbonyl]-amino}-1H-indazole-7-carboxylic acid (3-methyl-thietan-3-yl)-amide]
not listed: [7] | [8] | [9]
> 80%: all other assays above

Cc1cc2cn[nH]c2c(C(=O)NC2(C3CC3)CC2)c1NC(=O)c1cc(OCC(F)(F)F)nn1-c1ncccc1Cl [P.70, 6-{[2-(3-chloro-pyridin-2-yl)-5-(2,2,2-trifluoro-ethoxy)-2H-pyrazole-3-carbonyl]-amino}-5-methyl-1H-indazole-7-carboxylic acid bicyclopropyl-1-ylamide]
not listed: [9]
> 80%: all other assays above

O=C(NC1(C2CC2)CC1)c1c(NC(=O)c2cc(Cl)nn2-c2ncccc2Cl)c(Cl)cc2cn[nH]c12 [P.45, 5-chloro-6-{[5-chloro-2-(3-chloro-pyridin-2-yl)-2H-pyrazole-3-carbonyl]-amino}-1H-indazole-7-carboxylic acid bicyclopropyl-1-ylamide]
not listed: [1] | [5]
> 80%: all other assays above

CNC(=O)c1c(NC(=O)c2cc(C(F)(F)F)nn2-c2ncccc2Cl)c(C)cc2nc(C)ccc12 [P.22]
> 80%: [1] | [4] | [5] | [8]

COc1cc(C(=O)Nc2c(C#N)cc3cn[nH]c3c2C(=O)NC2(C3CC3)CC2)n(-c2ncccc2Cl)n1 [P.53]
not listed: [8] | [9]
> 80%: all other assays above

COc1cc(C(=O)Nc2c(Br)cc3cn[nH]c3c2C(=O)NC(C)(C)CS(C)(=O)=O)n(-c2ncccc2Cl)n1 [P.54]
not listed: [7]
> 80%: all other assays above

CNC(=O)c1c(NC(=O)c2cc(C(F)(F)F)nn2-c2ncccc2Cl)c(Br)cc2cn[nH]c12 [P.17]
not listed: [6] | [9]
> 80%: all other assays above

CC(C)(CS(C)(=O)=O)NC(=O)c1c(NC(=O)c2cc(C(F)(F)F)nn2-c2ncccc2Cl)c(Cl)cc2cn[nH]c12 [P.15]
not listed: [6] | [9]
> 80%: all other assays above

COc1cc(C(=O)Nc2c(Br)cc3cn[nH]c3c2C(=O)NC(C)(C)CSC)n(-c2ncccc2Cl)n1 [P.51]
not listed: [7] | [8] | [9]
> 80%: all other assays above
